Data published in PubChem BioAssay (NCI).
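Step 1: Grow cells in 96-well plates. Step 2: Expose to compound for 48 hours at 5 concentrations. Step 3: Interpolate endpoints linearly; if unreached, use highest concentration. At the TGI there is no net growth.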

What was measured:
Assay in all cases: NCI tumour cell line growth inhibition, 48 h
RPMI-8226 leukemia = test system: RPMI-8226 leukemia
HS 578T breast = test system: HS 578T breast
RXF 393 renal = test system: RXF 393 renal
SF-268 CNS = test system: SF-268 CNS
SF-539 CNS = test system: SF-539 CNS
BT-549 breast = test system: BT-549 breast
ACHN renal = test system: ACHN renal
SK-MEL-5 melanoma = test system: SK-MEL-5 melanoma
HCT-15 colon = test system: HCT-15 colon
COLO 205 colon = test system: COLO 205 colon
OVCAR-8 ovarian = test system: OVCAR-8 ovarian
PC-3 prostate = test system: PC-3 prostate
U251 CNS = test system: U251 CNS
HOP-62 NSCLC = test system: HOP-62 NSCLC
HCC-2998 colon = test system: HCC-2998 colon
OVCAR-4 ovarian = test system: OVCAR-4 ovarian
786-0 renal = test system: 786-0 renal
SN12C renal = test system: SN12C renal
SK-MEL-28 melanoma = test system: SK-MEL-28 melanoma
UO-31 renal = test system: UO-31 renal
MALME-3M melanoma = test system: MALME-3M melanoma
HCT-116 colon = test system: HCT-116 colon
IGROV1 ovarian = test system: IGROV1 ovarian
LOX IMVI melanoma = test system: LOX IMVI melanoma
NCI-H460 lung = test system: NCI-H460 lung
CCRF-CEM leukemia = test system: CCRF-CEM leukemia
DU-145 prostate = test system: DU-145 prostate
NCI-H226 lung = test system: NCI-H226 lung
UACC-257 melanoma = test system: UACC-257 melanoma
MOLT-4 leukemia = test system: MOLT-4 leukemia
HL-60(TB) leukemia = test system: HL-60(TB) leukemia
A498 renal = test system: A498 renal
A549 NSCLC = test system: A549 NSCLC
SW-620 colon = test system: SW-620 colon
UACC-62 melanoma = test system: UACC-62 melanoma
EKVX NSCLC = test system: EKVX NSCLC
HOP-92 NSCLC = test system: HOP-92 NSCLC
NCI-H23 lung = test system: NCI-H23 lung
TK-10 renal = test system: TK-10 renal
HT29 colon = test system: HT29 colon
K-562 leukemia = test system: K-562 leukemia
MDA-N = test system: MDA-N
NCI-H522 lung = test system: NCI-H522 lung
SNB-19 CNS = test system: SNB-19 CNS
MCF7 breast = test system: MCF7 breast
KM12 colon = test system: KM12 colon
SNB-75 CNS = test system: SNB-75 CNS
MDA-MB-231 breast = test system: MDA-MB-231 breast
CAKI-1 renal = test system: CAKI-1 renal
OVCAR-3 ovarian = test system: OVCAR-3 ovarian
M14 melanoma = test system: M14 melanoma
SF-295 CNS = test system: SF-295 CNS
MDA-MB-435 = test system: MDA-MB-435
T-47D breast = test system: T-47D breast
NCI/ADR-RES ovarian = test system: NCI/ADR-RES ovarian
SR leukemia = test system: SR leukemia
OVCAR-5 ovarian = test system: OVCAR-5 ovarian
SK-OV-3 ovarian = test system: SK-OV-3 ovarian
SK-MEL-2 melanoma = test system: SK-MEL-2 melanoma

Q: For NS(=O)(=O)c1ccc(N=Nc2nc3[nH]cnc(=S)c3[nH]2)cc1, which TGI (RPMI-8226 leukemia) is on record?
A: 6.53 µM

Q: What about the TGI (HS 578T breast) of the same compound?
A: > 87 µM

Q: And the TGI (RXF 393 renal)?
A: > 22.1 µM

Q: And the TGI (SF-268 CNS)?
A: > 100 µM

Q: And the TGI (SF-539 CNS)?
A: 34.4 µM

Q: And the TGI (BT-549 breast)?
A: > 37.9 µM

Q: And the TGI (ACHN renal)?
A: > 100 µM

Q: What about the TGI (SK-MEL-5 melanoma) of the same compound?
A: 24.8 µM

Q: What about the TGI (HCT-15 colon) of the same compound?
A: > 50.9 µM

Q: What about the TGI (COLO 205 colon) of the same compound?
A: 7.09 µM

Q: What about the TGI (OVCAR-8 ovarian) of the same compound?
A: > 100 µM

Q: What about the TGI (PC-3 prostate) of the same compound?
A: > 41.4 µM

Q: And the TGI (U251 CNS)?
A: > 100 µM

Q: And the TGI (HOP-62 NSCLC)?
A: > 51.1 µM

Q: What about the TGI (HCC-2998 colon) of the same compound?
A: 2.83 µM

Q: What about the TGI (OVCAR-4 ovarian) of the same compound?
A: > 100 µM

Q: And the TGI (786-0 renal)?
A: > 100 µM

Q: What about the TGI (SN12C renal) of the same compound?
A: > 40.1 µM

Q: What about the TGI (SK-MEL-28 melanoma) of the same compound?
A: > 100 µM

Q: What about the TGI (UO-31 renal) of the same compound?
A: > 43.8 µM

Q: And the TGI (MALME-3M melanoma)?
A: 36 µM

Q: And the TGI (HCT-116 colon)?
A: 16.3 µM

Q: What about the TGI (IGROV1 ovarian) of the same compound?
A: > 100 µM

Q: What about the TGI (LOX IMVI melanoma) of the same compound?
A: 15.4 µM

Q: What about the TGI (NCI-H460 lung) of the same compound?
A: 10.1 µM

Q: And the TGI (CCRF-CEM leukemia)?
A: 4.21 µM

Q: And the TGI (DU-145 prostate)?
A: 41.1 µM

Q: And the TGI (NCI-H226 lung)?
A: > 76.5 µM

Q: And the TGI (UACC-257 melanoma)?
A: > 87.6 µM

Q: And the TGI (MOLT-4 leukemia)?
A: 4.19 µM

Q: And the TGI (HL-60(TB) leukemia)?
A: 16.7 µM

Q: What about the TGI (A498 renal) of the same compound?
A: 98.9 µM

Q: And the TGI (A549 NSCLC)?
A: > 89.6 µM

Q: And the TGI (SW-620 colon)?
A: > 100 µM

Q: And the TGI (UACC-62 melanoma)?
A: 8.72 µM

Q: And the TGI (EKVX NSCLC)?
A: > 100 µM

Q: What about the TGI (HOP-92 NSCLC) of the same compound?
A: > 100 µM

Q: What about the TGI (NCI-H23 lung) of the same compound?
A: 14.2 µM

Q: What about the TGI (TK-10 renal) of the same compound?
A: 19.3 µM

Q: What about the TGI (HT29 colon) of the same compound?
A: > 68.2 µM

Q: What about the TGI (K-562 leukemia) of the same compound?
A: > 53.1 µM

Q: And the TGI (MDA-N)?
A: > 38.9 µM

Q: And the TGI (NCI-H522 lung)?
A: 10.2 µM

Q: And the TGI (SNB-19 CNS)?
A: > 100 µM

Q: And the TGI (MCF7 breast)?
A: > 100 µM

Q: What about the TGI (KM12 colon) of the same compound?
A: > 100 µM

Q: What about the TGI (SNB-75 CNS) of the same compound?
A: > 100 µM

Q: What about the TGI (MDA-MB-231 breast) of the same compound?
A: > 25.3 µM

Q: And the TGI (CAKI-1 renal)?
A: > 100 µM

Q: And the TGI (OVCAR-3 ovarian)?
A: > 22.5 µM

Q: And the TGI (M14 melanoma)?
A: > 32.6 µM

Q: And the TGI (SF-295 CNS)?
A: > 64.7 µM

Q: What about the TGI (MDA-MB-435) of the same compound?
A: > 100 µM

Q: What about the TGI (T-47D breast) of the same compound?
A: > 25.3 µM

Q: And the TGI (NCI/ADR-RES ovarian)?
A: 14.5 µM

Q: What about the TGI (SR leukemia) of the same compound?
A: 1.11 µM

Q: And the TGI (OVCAR-5 ovarian)?
A: > 60.2 µM

Q: Which TGI (SK-OV-3 ovarian) does the source give for CC(=O)OC(C#N)CC(C)(C)/[N+]([O-])=[N+](\[O-])C(C)(C)CC(C#N)OC(C)=O (centres undefined) here?
A: > 100 µM

Q: What about the TGI (RPMI-8226 leukemia) of the same compound?
A: 40.2 µM

Q: What about the TGI (HS 578T breast) of the same compound?
A: 55.2 µM

Q: And the TGI (RXF 393 renal)?
A: 27.4 µM

Q: And the TGI (SF-268 CNS)?
A: 42.2 µM

Q: And the TGI (BT-549 breast)?
A: 36.6 µM

Q: And the TGI (SK-MEL-2 melanoma)?
A: > 100 µM

Q: What about the TGI (ACHN renal) of the same compound?
A: 24.5 µM

Q: And the TGI (SK-MEL-5 melanoma)?
A: 33.9 µM

Q: What about the TGI (HCT-15 colon) of the same compound?
A: 25.5 µM

Q: And the TGI (COLO 205 colon)?
A: 32 µM

Q: And the TGI (OVCAR-8 ovarian)?
A: 73.3 µM

Q: What about the TGI (PC-3 prostate) of the same compound?
A: 37.9 µM

Q: What about the TGI (U251 CNS) of the same compound?
A: 39.5 µM

Q: And the TGI (HOP-62 NSCLC)?
A: 36.2 µM

Q: And the TGI (HCC-2998 colon)?
A: 31.6 µM

Q: And the TGI (OVCAR-4 ovarian)?
A: 33.9 µM

Q: What about the TGI (786-0 renal) of the same compound?
A: 24.7 µM

Q: And the TGI (SN12C renal)?
A: 35.7 µM

Q: And the TGI (SK-MEL-28 melanoma)?
A: 96.4 µM

Q: What about the TGI (UO-31 renal) of the same compound?
A: 63.6 µM

Q: What about the TGI (MALME-3M melanoma) of the same compound?
A: 47.4 µM

Q: What about the TGI (HCT-116 colon) of the same compound?
A: 20.9 µM

Q: And the TGI (IGROV1 ovarian)?
A: 24 µM

Q: And the TGI (LOX IMVI melanoma)?
A: 28.8 µM

Q: And the TGI (NCI-H460 lung)?
A: 35 µM

Q: What about the TGI (CCRF-CEM leukemia) of the same compound?
A: > 100 µM

Q: What about the TGI (DU-145 prostate) of the same compound?
A: 43.8 µM

Q: And the TGI (NCI-H226 lung)?
A: 55.3 µM

Q: And the TGI (UACC-257 melanoma)?
A: 37.8 µM

Q: And the TGI (MOLT-4 leukemia)?
A: 26.3 µM

Q: What about the TGI (A498 renal) of the same compound?
A: > 100 µM

Q: What about the TGI (A549 NSCLC) of the same compound?
A: > 100 µM

Q: And the TGI (SW-620 colon)?
A: 30.2 µM

Q: What about the TGI (UACC-62 melanoma) of the same compound?
A: 32.2 µM

Q: And the TGI (EKVX NSCLC)?
A: 39.7 µM

Q: What about the TGI (HOP-92 NSCLC) of the same compound?
A: 27 µM

Q: And the TGI (NCI-H23 lung)?
A: 34 µM

Q: What about the TGI (TK-10 renal) of the same compound?
A: 31.2 µM

Q: And the TGI (HT29 colon)?
A: 65.8 µM

Q: What about the TGI (K-562 leukemia) of the same compound?
A: 26.2 µM

Q: What about the TGI (MDA-N) of the same compound?
A: 30.3 µM

Q: What about the TGI (NCI-H522 lung) of the same compound?
A: 23.9 µM

Q: What about the TGI (SNB-19 CNS) of the same compound?
A: 67.6 µM

Q: What about the TGI (MCF7 breast) of the same compound?
A: > 100 µM

Q: And the TGI (KM12 colon)?
A: 28.9 µM

Q: What about the TGI (SNB-75 CNS) of the same compound?
A: 63.8 µM

Q: And the TGI (MDA-MB-231 breast)?
A: 36.1 µM

Q: What about the TGI (CAKI-1 renal) of the same compound?
A: 30.7 µM

Q: What about the TGI (OVCAR-3 ovarian) of the same compound?
A: 40 µM

Q: And the TGI (M14 melanoma)?
A: 32.2 µM

Q: And the TGI (SF-295 CNS)?
A: 80.8 µM

Q: And the TGI (MDA-MB-435)?
A: 33.8 µM

Q: What about the TGI (T-47D breast) of the same compound?
A: 50.2 µM

Q: And the TGI (NCI/ADR-RES ovarian)?
A: 79.3 µM

Q: And the TGI (SR leukemia)?
A: 48.3 µM

Q: What about the TGI (OVCAR-5 ovarian) of the same compound?
A: 95.4 µM
